How the values were obtained:
[1] = tested on: cellulase genes (cbh-1, gh5-1, gh6-2); assay: Quantitative RT-PCR, cellulase gene expression stated for the genes together; assay type: cell-based, Neurospora crassa; settings: for induction of cellulase gene expression: 4 hour induction with 1 mM; for induction of lignocellulolytic genes: wild-type N. crassa (WT) grown on the substance as sole carbon source
Protocol: Conidia from strains were inoculated at an OD595 equal to 0.05 in 50 ml Vogel's salts (45) with 2% w/v sucrose in a 250 ml Erlenmeyer flask and grown under constant light at 200 rpm for 16 hours. Biomass was then spun at 4200 rpm for 10 minutes and washed in Vogel's salts twice to remove any excess sucrose. […] Cultures were induced for 4 hrs under constant light at 200 rpm. The culture biomass was then harvested by filtration over a Whatman glass microfiber filter (GF/F) on a Buchner funnel and washed with 50 ml Vogel's salts. The biomass was flash frozen in liquid nitrogen and stored at −80° C. Three independent biological duplicates (flasks) were evaluated for each time point.
Total RNA from frozen samples was isolated using Zirconia/Silica beads (0.5 mm diameter; Biospec) and a Mini-Beadbeater-96 (Biospec) with 1 mL TRIzol reagent (Invitrogen) according to the manufacturer's instructions. The total RNA was further purified by digestion with TURBO DNA-free (Ambion) and an RNeasy kit (Qiagen). RNA concentration and integrity was checked by Nanodrop and agarose gel electrophoresis.
Quantitative RT-PCR was performed using the EXPRESS One-Step SYBR GreenER Kit (Invitrogen) and the StepOnePlus Real-Time PCR System (Applied Biosystems). Reactions were performed in triplicate with a total reaction volume of 10 μl including 300 nM each forward and reverse primers and 75 ng template RNA. Data Analysis was performed by the StepOne Software (Applied Biosystems) using the Relative Quantitation/Comparative CT (ΔΔCT) setting. Data was normalized to the endogenous control actin with expression on sucrose as the reference sample.

Neurospora crassa [2] = assay: Secreted protein concentration in shake flask culture supernatant; assay type: cell-based; settings: for secreted protein concentration: 48 hours
Protocol: (§1) Strains were inoculated at an OD595 equal to 0.05 in 100 ml Vogel's salts with 1% (wt/vol) sucrose in a 250 ml Erlenmeyer flask and grown under constant light at 200 rpm for 24 hours. Cultures were then induced with 2% sucrose, 2% cellobiose, 1% sucrose/1% cellobiose, or 1% sucrose/1% Avicel®. Cultures continued to grow under constant light at 200 rpm for 5 days with supernatant collected at 1, 2, 3, 4 and 5 day. The collected supernatant was filtered through a 0.2 μm PES filter to remove biomass before being stored at −20° C. until all samples were collected. To visualize the secreted proteins, 15 μl of unconcentrated supernatant was run on a Criterion 10% Tris-HCL polyacrylamide gel and stained with Thermo Scientific GelCode Blue Stain Reagent.

[3] = tested on: Exoglucanase (Cellobiohydrolase I); assay: MuLac (4-Methylumbelliferyl β-D-cellobioside) exoglucanase activity of culture supernatant; assay type: cell-based, Neurospora crassa
Protocol: as §1
Exoglucanase (Cellobiohydrolase I) activity was measured using a 4-Methylumbelliferyl β-D-cellobioside (MuLac) assay. This assay mainly measures the activity of CBH-1 and activity is expressed as the change in fluorescence over time resulting in the slope of a best-fit line as an indication of enzyme activity. Prior to performing this assay, any excess sugars in the culture supernatant were removed by passing the supernatant over a 5,000 Dalton concentrator (sartorius stedim Vivaspin 500). Retained proteins were washed twice with 50 mM sodium acetate pH 5 and diluted to 2 μg/μl to assure that the assay remained in the linear range. […] The assay was performed in a Beckman Coulter Paradigm plate reader set at 40° C. with excitation/emission wavelengths of 360/465 nm with readings every 30 seconds for 10 minutes. The slope of the best-fit line represents the MuLac activity for an individual culture supernatant. The MuLac activity is normalized to the initial dilution required to obtain a 2 μg/μl concentration in order to represent the undiluted activity. The activity of recombinant cellobiohydrolase-1 was used as a standard and data is presented as a percentage of the wild type activity on Avicel® after 4 days.

Neurospora crassa [4] = assay: Avicel hydrolysis assay with shake flask culture supernatants; assay type: cell-based
Protocol: Cultures were grown in 1% sucrose for 24 hours followed by the addition of 2% sucrose or 0.2% cellobiose. Supernatant was harvested after 24 (WT, Δ3βG and Δ3βGΔcre) or 72 hours (Δ3βG). The WT Avicel® culture was grown for 5 days on 2% Avicel®, Δ3βG was grown in 1% sucrose for 24 hours followed by 48 hours in 1% Avicel® and Δ3βGΔcre was grown in 1% sucrose for 24 hours followed by 24 hours in 1% Avicel®.
Total Avicelase activity was conducted in 250 mL media bottles incubated at 50° C. on a orbital shaker at 200 rpm. Each bottle contained 1% cellulose (Avicel®) and 50 mM (pH 5.0) sodium acetate in a working volume of 50 mL. Tetracycline (10 μg/mL) was added to prevent microbial contamination. Bioreactor culture broth samples were buffer exchanged using a 10 kDa MWCO centrifugal filter to remove any soluble sugars prior to initiating hydrolysis experiments. After pre-incubating the hydrolysis mixture to 50° C., enzyme was added (1 mL filtered culture broth). Samples were taken every 4 hours for the first 12 hours and then every 12 hours thereafter for a total of 48 hours. Hydrolysis experiments were performed in triplicate.
Sucrose, fructose, glucose and cellobiose were measured on a DIONEX ICS-3000 HPLC (Dionex Corp., Sunnyvale, Calif.) using a CarboPac PA20 Analytical Column (3×150 mm) and a CarboPac PA20 guard column (3×30 mm) at 30° C. Following injection of 25 μl of diluted samples, elution was performed with 100 mM KOH (isocratic) at 0.4 ml/min. Sugars were detected using PAD, Four-Potential Carbohydrate Waveform and Peaks were analyzed using the Chromeleon software package.

Question: Which results are given for `O=C[C@H](O)[C@@H](O)[C@@H](O)[C@H](O)CO` [D-(+)-galactose]?
Answer: induction of cellulase gene expression ([1]; WT): did not significantly induce; induction of cellulase gene expression ([1]; Δ3βG mutant): did not significantly induce

Question: Which “induction of lignocellulolytic genes” value [1] does the source give for `OC[C@H]1O[C@@H](O[C@H]2[C@H](O)[C@@H](O)[C@H](O[C@H]3[C@H](O)[C@@H](O)[C@H](O[C@H]4[C@H](O)[C@@H](O)C(O)O[C@@H]4CO)O[C@@H]3CO)O[C@@H]2CO)[C@H](O)[C@@H](O)[C@@H]1O` (some centres unmarked) [cellotetraose] here?
Answer: not induced

Question: For `OC[C@H]1O[C@@H](O[C@H]2[C@H](O)[C@@H](O)[C@H](O[C@H]3[C@H](O)[C@@H](O)C(O)O[C@@H]3CO)O[C@@H]2CO)[C@H](O)[C@@H](O)[C@@H]1O` (some centres unmarked) [cellotriose], which “induction of lignocellulolytic genes” value [1] is on record?
Answer: not induced

Question: What does the source list for `OC[C@H]1O[C@@H](O[C@H]2[C@H](O)[C@@H](O)C(O)O[C@@H]2CO)[C@H](O)[C@@H](O)[C@H]1O` (some centres unmarked) [lactose]?
Answer: induction of cellulase gene expression ([1]; WT): did not significantly induce; induction of cellulase gene expression ([1]; Δ3βG mutant): did not significantly induce

Question: Which “induction of cellulase gene expression” value ([1]; WT) does the source give for `OC[C@H]1O[C@@H](O[C@H]2C(O)O[C@H](CO)[C@@H](O)[C@@H]2O)[C@H](O)[C@@H](O)[C@@H]1O` (some centres unmarked) [sophorose] here?
Answer: did not significantly induce

Question: And the “induction of cellulase gene expression” value ([1]; Δ3βG mutant)?
Answer: did not significantly induce

Question: Which “induction of lignocellulolytic genes” value [1] does the source give for `OC[C@H]1O[C@@](CO)(O[C@H]2O[C@H](CO)[C@@H](O)[C@H](O)[C@H]2O)[C@@H](O)[C@@H]1O` [sucrose] here?
Answer: not induced

Question: And the secreted protein concentration (Neurospora crassa [2]; WT)?
Answer: 270 µg/mL

Question: What about the secreted protein (Neurospora crassa [2]; triple β-glucosidase deletion, after 2 days) of the same molecule?
Answer: 180 µg/mL

Question: What about the secreted protein concentration (Neurospora crassa [2]; Δcre-1) of the same molecule?
Answer: 481 µg/mL

Question: And the MuLac activity ([3]; triple β-glucosidase deletion, two days)?
Answer: no activity towards MuLac

Question: What about the “activity of secreted proteins towards MuLac” value ([3]; Δcre-1, on sucrose) of the same molecule?
Answer: do not exhibit any activity towards MuLac

Question: What about the “hydrolysis of crystalline cellulose by culture supernatant” value (“hydrolysis of crystalline cellulose” below) (Neurospora crassa [4]; WT cultures grown on or induced with the substance) of the same molecule?
Answer: unable to produce glucose or cellobiose from crystalline cellulose

Question: And the “hydrolysis of crystalline cellulose” value (Neurospora crassa [4]; Δ3βG cultures grown on or induced with the substance)?
Answer: unable to produce glucose or cellobiose from crystalline cellulose

Question: And the “hydrolysis of crystalline cellulose” value (Neurospora crassa [4]; Δ3βGΔcre cultures grown on or induced with the substance)?
Answer: unable to produce glucose or cellobiose from crystalline cellulose
